These results are taken from ChEMBL document CHEMBL3352575, “Synthesis, in vitro and in vivo antitumor activity of pyrazole-fused 23-hydroxybetulinic acid derivatives” (Bioorg Med Chem Lett, 2015).

The test system of assay [1] is H22. Briefly: Antitumor activity against […] H22 cells […] in ICR mouse assessed as tumor growth inhibition at 30 mg/kg, ip administered 7 days post inoculation measured at day 25 of tumor transplantation. It counts as functional. Particulars: route intraperitoneal.
Assay [2] has as its system B16. Briefly: Antitumor activity against mouse B16 cells allografted in ICR mouse assessed as tumor growth inhibition at 30 mg/kg, ip administered 7 days post inoculation measured at day 25 of tumor transplantation. Format: functional. Particulars: route intraperitoneal.
The nature of assay [3]: Antiproliferative activity against human Bel7402 cells after 72 hrs by MTT assay. It counts as functional, cell-based. Particulars: Bel-7402, 72 h. (In general: Tetrazolium assays rely on reduction of a dye to a coloured formazan, in cell work by metabolically active cells.)
The nature of assay [4]: Antiproliferative activity against human HL60 cells after 72 hrs by MTT assay. Particulars: HL-60, 72 h. It counts as functional, cell-based.
Another assay relates to HeLa. Briefly: Antiproliferative activity against human HeLa cells after 72 hrs by MTT assay. Format: functional, cell-based.
Assay [5] deals with B16. Kind of assay: Antiproliferative activity against mouse B16 cells after 72 hrs by MTT assay. Conditions: B16, 72 h. It counts as functional, cell-based.
The nature of assay [6]: Antiproliferative activity against human SF763 cells after 72 hrs by MTT assay. Format: functional, cell-based. Particulars: SF763, 72 h.
Assay [7] concerns H22. Kind of assay: Antitumor activity against human H22 cells xenografted in ICR mouse assessed as tumor growth inhibition at 30 mg/kg, iv administered 7 days post inoculation measured at day 25 of tumor transplantation. Conditions: read-out: INH. In general terms: A xenograft is tissue or cells of one species grown in another, often human tumour cells in immunodeficient mice.

Assay [8] relates to B16. Briefly: Antitumor activity against mouse B16 cells allografted in ICR mouse assessed as tumor growth inhibition at 30 mg/kg, iv administered 7 days post inoculation measured at day 25 of tumor transplantation. It counts as functional.

In the case of `C=C(C)[C@@H]1CC[C@]2(C(=O)O)CC[C@]3(C)[C@H](CC[C@@H]4[C@@]5(C)CC[C@H](O)[C@@](C)(CO)[C@@H]5CC[C@]43C)[C@@H]12`, the values for the inhibition in vivo at 30 mg/kg in the assay with H22 [1] and with B16 [2] were 27.8% and 32.4%, respectively.
For orientation: IC50 means the concentration that inhibits the measured activity by half. For `C=C(C)[C@@H]1CC[C@]2(C(=O)NCCN)CC[C@]3(C)[C@H](CC[C@@H]4[C@@]5(C)Cc6c[nH]nc6[C@@](C)(COC(C)=O)[C@@H]5CC[C@]43C)[C@@H]12`, the IC50 stood at 8.12 µM in assay [3]; 8.04 µM in assay [4]; 8.97 µM with HeLa; 5.58 µM with B16 [5]; 6.13 µM in assay [6]. For the same molecule, the inhibition in vivo at 30 mg/kg in the assay on H22 [1] was determined as 51.2%; in the assay with B16 [2], 58.9%.
For `C=C(C)[C@@H]1CC[C@]2(C(=O)OCC(=O)O)CC[C@]3(C)[C@H](CC[C@@H]4[C@@]5(C)Cc6cn(CC(=O)O)nc6[C@@](C)(CO)[C@@H]5CC[C@]43C)[C@@H]12`, the concentration for half-maximal inhibition (IC50) in [3] is 47.6 µM; in assay [4], 44.8 µM; in the assay on HeLa it was 50 µM; in the assay on B16 [5], 36 µM; in assay [6], 41.8 µM.
With `O=P1(N(CCCl)CCCl)NCCCO1` (stereo unspecified) [CYCLOPHOSPHAMIDE ANHYDROUS], in the assay on H22 [7], the inhibition in vivo at 30 mg/kg was 53.7%.
Consider `O=c1[nH]cc(F)c(=O)[nH]1` [FLUOROURACIL], for which the IC50 in assay [3] came out at 11.8 µM; in [4] it was 10.5 µM; with HeLa it was 9.09 µM; in the assay with B16 [5] it was 10.5 µM; in assay [6] it was 9.34 µM. Further, the inhibition in vivo at 30 mg/kg in the assay with B16 [8] was 70.3%.
